In US20010056089A1, “Novel crystal of cephalosporin compound” (FUJISAWA PHARMACEUTICAL CO., LTD., priority 1995, published 2001):

Assays:
[1] = Stability test (1): one-month stability in an airtight container at 40° C.; type: physicochemical; conditions: potency by liquid chromatography
Experimental: The water-containing crystals and isopropyl alcohol and water-containing crystals of Compound (I) or a salt thereof obtained in Examples 5, 7 and 8(1) were tested.
The one-month stability of each test sample in an airtight container at 40° C. was evaluated.
The potency of each test sample was determined by liquid chromatography and the percentage residue of Compound (I) or a salt thereof was calculated.

[2] = Stability test (2): 9-day stability in an airtight container at 70° C.; type: physicochemical; conditions: potency by liquid chromatography
Experimental: Four lots of the isopropyl alcohol and water-containing crystal of compound (I) as obtained in Example 8 (2) were used.
The 9-day stability of each test sample in an airtight container at 70° C. was determined. The potency of each test sample was determined by liquid chromatography and the percentage residue was calculated.

[3] = Urinary excretion after oral administration; type: in vivo; conditions: male, SD, rat, urine; rats fasted overnight, 20 mg/kg oral, suspended in 0.5% methylcellulose; disk plate diffusion, Bacillus subtilis ATCC 6633; read-out: Recovery in 24-hrs urine (%)
Experimental: (C) Urinary Excretion Test Method Male SD rats (6-7 weeks old) from JCL were used. The test compound was suspended in 0.5% methylcellulose solution. The rats were fasted overnight before administration of 20 mg/kg. The urine was collected in the time slots of 0-6 and 6-24 hours after oral administration and the urinary recovery was determined by the disk plate diffusion method using Bacillus subtilis ATCC 6633 as the test organism and sodium citrate agar (0.8% sodium citrate, 0.5% polypeptone, 0.3% beef extract, and 1.0% agar) as the test medium.

[4] = Stability test of the crystal of Example 2 (conditions not stated); type: physicochemical

SMILES	Residue (%) [1]	Residue (%) [2]	further results
Nc1nc(/C(=N/O)C(=O)N[C@@H]2C(=O)N3C(C(=O)O)=C(SCc4cn[nH]c4)CS[C@H]23)cs1 [Example 7, 7β-[2-(2-aminothiazol-4-yl)-2-(Z)-(hydroxyimino)acetamido]-3-[(pyrazol-4-yl)methylthio]-3-cephem-4-carboxylic acid]	99.2%		
Nc1nc(/C(=N/O)C(=O)N[C@@H]2C(=O)N3C(C(=O)O)=C(SCc4cn[nH]c4)CS[C@H]23)cs1 [Example 5, 7β-[2-(2-amino-thiazol-4-yl)-2-(Z)-(hydroxyimino)acetamido]-3-[(pyrazol-4-yl)methylthio]-3-cephem-4-carboxylic acid]	98.2%		
Nc1nc(/C(=N/O)C(=O)NC2C(=O)N3C(C(=O)O)=C(SCc4cn[nH]c4)CSC23)cs1 (stereo not drawn) [Example 35434OP]		98.0%	
Nc1nc(/C(=N/O)C(=O)NC2C(=O)N3C(C(=O)O)=C(SCc4cn[nH]c4)CSC23)cs1 (stereo not drawn) [Example 37914XP]		98.0%	
Nc1nc(/C(=N/O)C(=O)NC2C(=O)N3C(C(=O)O)=C(SCc4cn[nH]c4)CSC23)cs1 (stereo not drawn) [Example 35414OP]		98.7%	
Nc1nc(/C(=N/O)C(=O)NC2C(=O)N3C(C(=O)O)=C(SCc4cn[nH]c4)CSC23)cs1 (stereo not drawn) [Example 35534OP]		99.2%	
Nc1nc(/C(=N/O)C(=O)N[C@@H]2C(=O)N3C(C(=O)O)=C(SCc4cn[nH]c4)CS[C@H]23)cs1 [Compound (I), 7β-[2-(2-aminothiazol-4-yl)-2-(Z)-(hydroxyimino)acetamido]-3-[(pyrazol-4-yl)methylthio]-3-cephem-4-carboxylic acid]			dose excreted [3]: 50%
Nc1nc(/C(=N/O)C(=O)N[C@@H]2C(=O)N3C(C(=O)O)=C(SCc4cn[nH]c4)CS[C@H]23)cs1 [Example 8(1), 7β-[2-(2-aminothiazol-4-yl)-2-(Z)-(hydroxyimino)acetamido]-3-[(pyrazol-4-yl)methylthio]-3-cephem-4-carboxylic acid]	98.5%		
Nc1nc(/C(=N/O)C(=O)N[C@@H]2C(=O)N3C(C(=O)O)=C(SCc4cn[nH]c4)CS[C@H]23)cs1 [Example 2, 7β-[2-(2-aminothiazol-4-yl)-2-(Z)-(hydroxyimino)acetamido]-3-[(pyrazol-4-yl)methylthio]-3-cephem-4-carboxylic acid]			stability in the stability test [4]: stable
